Data set [1] concerns S. cerevisiae strain RS112. Put plainly: well-based DEL assay (MTS colorimetric, 96/384-well): genotoxicity and cytotoxicity. The conditions noted are these: for DEL events (DNA deletions) induced by crosslinking agents: well-based DEL assay. The source says:
(§1) The RS112 yeast DEL assay tester strain of Saccharomyces cerevisiae contains a plasmid with an internal fragment of the HIS3 gene integrated at the genomic HIS3 locus, yielding an integrative disruption of the HIS3 gene. This disruption results in two copies of the HIS3 gene, each copy having one terminal deletion. Recombination between the two his3 deletion alleles results in reversion to HIS3^+ and growth in the absence of histidine. This recombination event leads to a 6 kb DNA deletion comprising the integrated plasmid leading to deletion (DEL) events. The assay utilizing DEL events involves overnight growth of a single colony of the RS112 strain and subsequent subculture with the presence or absence of the chemical being tested for 17 hours at 30° C. under constant shaking. Yeast are then plated onto SC medium to determine the number of survivors (individual colonies are counted) and onto SC-HIS medium to score for DEL events. The traditional DEL assay is very powerful if one is testing a limited number of chemicals but becomes impractical for screening large numbers of chemicals and chemical libraries.
(§2) For 384-well plate format, 1 μl of yeast (˜100,000 cells) was pipetted into 8 microplate wells for each compound, four of which containing 70 μl SC media and four containing 70 μl SC-HIS media; each well was supplemented with 14 μl of MTS and 5 μl of compound. For 96-well plate format, the above was consistent except media, MTS, and compound volumes were 100 μl, 20 μl, and 7 μl, respectively. Control wells were treated with water in lieu of compound. The outermost columns of the 96-well plate and outer two columns of each 384-well plate were excluded from experimentation lest edge evaporative effects alter the data. Plates were incubated at 30° C. at normal atmosphere during which yeast were grown in the presence of the tested compound and 490 nm absorbance was measured 10-18 hr later using a Molecular Devices SpectraMax M5 microplate reader (Sunnyvale, Calif.).
(§3) Survival for a given compound treatment was quantified by averaging the absorbance across the four treated wells in SC media and dividing that by the average absorbance of control wells. DEL induction was quantified by dividing the absorbance of each SC-HIS well by the corresponding paired SC well. Thus for each compound done in quadruplicate, each plate contains a set of 4 different measurements of DEL induction. For each compound, ratio of the average DEL induction in treated versus control cultures was taken as the fold-increase in DEL events (HIS^+ growth). A Student's t-test was performed on the 4 measurements of DEL induction and the same measurements recorded from control wells to determine significance of the fold-increase. It should be noted that this value of fold-increase is analyzed statistically for significance and not absolute; thus two different chemicals may have the same fold-increase but varying levels of significance. In plots and tables, data from a single experiment performed in quadruplicate is presented; all experiments were repeated independently in at least 3 separate experiments in both 96 and 384-well plate formats.

Data set [2] deals with Saccharomyces cerevisiae. Put plainly: traditional plate-based yeast DEL assay (DNA deletions). The class given is cell-based. The note with it: 1.4 mM; background about 20 DEL events per 100,000 cells. As for the experimental part: In one embodiment, yeast cells (Saccharomyces cerevisiae) having a disruption of the his gene as the DEL selection marker are treated with test agents in 25 ml tubes and then plated for about 48 h at 30° C. Following treatment the cells are washed, for example, with PBS, and sonicated to assure dissociation of the cells into a single-cell suspension. The cells are then plated at an appropriate dilution (see below) onto medium lacking histidine as well as standard medium containing histidine. The histidine-lacking medium is used to determine recombination frequency. Standard medium (medium containing histidine) is used to determine the overall toxicity of the test agent.

Data set [3] relates to Saccharomyces cerevisiae. The conditions noted are these: cited from earlier work; for induction of DNA deletions: previous experiments.
A short description of data set [4]: well-based DEL assay (MTS colorimetric, 96/384-well): genotoxicity and cytotoxicity. The note with it: Saccharomyces cerevisiae; for viability: Cytotoxicity (% survival).
Source text: as §1, §2, §3

Setting [5] is: S. cerevisiae strain RS112 (diploid yeast cells).
The mark [6] stands for this setting: concentrations as low as 1 μM (~0.3 μg/ml).

This is an account of results in patent US9193983B2, “Assays for mutagenesis detection” (The Regents of the University of California, priority 2007, dated 2015).

Molecules are shown by their SMILES.

With `[Cl][Cr]([Cl])[Cl]` [Cr (3), CrCl3], in data set [1] (0.2 mM final in well), the “Cytotoxicity (% survival)” value amounted to 110.1%, the “DEL (fold increase)” value came out at 0.93 fold and the DEL significance result was “ns (ns—not significant (p > 0.05))”. For the same compound, in data set [1] (0.7 mM final in well), the “Cytotoxicity (% survival)” value is 85.8%, the Cytotoxicity significance result was “** (** (p < 0.01))”, the “DEL (fold increase)” value was 0.98 fold and the DEL significance result was “ns (ns—not significant (p > 0.05))”. Further, the DEL recombination result in data set [1] (1.4 mM (~222 μg/ml)) is listed as “significant increase in DEL recombination”. Further, in data set [1] (1.4 mM final in well), the “Cytotoxicity (% survival)” value came to 36.8%, the Cytotoxicity significance entry is listed as “*** (*** (p < 0.005))”, the “DEL (fold increase)” value turned out to be 1.44 fold and the DEL significance result was “*** (*** (p < 0.005))”. Further, the genotoxic events entry in data set [1] (0.2 (~32 μg/ml) or 0.7 mM (~111 μg/ml)) is “did not induce any genotoxic events”. The “lowest detectable concentration (significant genotoxicity)” value in data set [1] (well-based format) is 1.4 mM. Moreover, in data set [2], the increase above background entry is given as “approximately 13.6 cells”. The “DEL events per 100,000 cells” value in data set [3] (1.4 mM (~222 μg/ml), plate-based assay, previously observed) is recorded as 33.6 DEL events per 100,000 cells. For the same compound, the “induction of DNA deletions” value in data set [3] was “induced DNA deletions”. Besides, in data set [3] (traditional agar plate version), the “lowest dose which induced significant genotoxicity” value is given as 0.7 mM.
What is called viability is a read-out of living cells in per cent, often relative to untreated cells. Consider `COS(C)(=O)=O` [MMS, methylmethane sulfonate], for which, in data set [4] (setting [5]), the viability at 10 nM worked out at 81.2%, the viability at 100 nM turned out to be 74.8%, the viability at 500 nM stood at 38.6% and the viability at 1000 nM is 20.3%. In data set [1] (10 nM final in well), the Cytotoxicity significance result was “*** (*** (p < 0.005))”, the “DEL (fold increase)” value came to 1.54 fold and the DEL significance entry is “** (** (p < 0.01))”. Besides, in data set [1] (100 nM final in well), the Cytotoxicity significance result is recorded as “*** (*** (p < 0.005))”, the “DEL (fold increase)” value worked out at 1.68 fold and the DEL significance entry is given as “*** (*** (p < 0.005))”. In data set [1] (500 nM final in well), the Cytotoxicity significance entry is reported as “*** (*** (p < 0.005))”, the “DEL (fold increase)” value was 2.16 fold and the DEL significance result is “*** (*** (p < 0.005))”. In data set [1] (1000 nM final in well), the Cytotoxicity significance entry is given as “*** (*** (p < 0.005))”, the “DEL (fold increase)” value stood at 3.09 fold and the DEL significance result is given as “*** (*** (p < 0.005))”. In addition, the cytotoxicity result in data set [1] (each concentration between 10-1000 nM) is listed as “increasingly significantly cytotoxic”. In data set [1] (lowest dose tested of 10 nM (0.0011 μg/ml)), the DEL fold-increase result is given as “significant increase in DEL fold-increase”.
Regarding `O=NN(CCCl)C(=O)NCCCl` [Carmustine, carmustine], the viability in data set [4] (10 μM final in well) was 91.8%; in data set [4] (30 μM final in well), 29.5%; in data set [4] (50 μM final in well) it was 10.7%. The cytotoxic effects result in data set [1] was “more pronounced genotoxic and cytotoxic effects”. Besides, the figures for the DEL significance entry in data set [1] (10 μM final in well), in data set [1] (30 μM final in well) and in data set [1] (50 μM final in well) were “* (* (p < 0.05))”, “*** (*** (p < 0.005))” and “*** (*** (p < 0.005))”, respectively. Besides, in data set [1], the “DEL events (DNA deletions) induced by crosslinking agents” value was “significant increase in DEL events”.
Consider `[K+].[K+].[O]=[Cr](=[O])([O-])[O][Cr](=[O])(=[O])[O-]` [Cr (6), K2Cr2O7], for which, in data set [1] (0.2 mM final in well), the “Cytotoxicity (% survival)” value was found to be 32.1%, the Cytotoxicity significance entry was “*** (*** (p < 0.005))”, the “DEL (fold increase)” value worked out at 2.13 fold and the DEL significance entry is given as “*** (*** (p < 0.005))”. In data set [1] (0.7 mM final in well), the “Cytotoxicity (% survival)” value came to 9.91%, the Cytotoxicity significance result is “*** (*** (p < 0.005))”, the “DEL (fold increase)” value came out at 3.78 fold and the DEL significance result is “*** (*** (p < 0.005))”. For the same compound, in data set [1] (1.4 mM final in well), the “Cytotoxicity (% survival)” value was 10.8%, the Cytotoxicity significance entry was “*** (*** (p < 0.005))”, the “DEL (fold increase)” value came out at 3.12 fold and the DEL significance result is “*** (*** (p < 0.005))”. In data set [1] (between 0.2 and 1.4 mM (~20-140 μg/ml)), the “induction of the DEL assay” value is “very potent induction of the DEL assay”. Further, the survival entry in data set [1] (with increased dose between 0.2 and 1.4 mM (~20-140 μg/ml)) was “severely decreased survival”. Further, in data set [3], the “induction of DNA deletions” value is “induced DNA deletions”.
On to `O=P1(N(CCCl)CCCl)NCCCO1` (centres unmarked) [Cyclophosphamide, cyclophosphamide monohydrate], for which, in data set [4], the viability at 50 μM was 109%, the viability at 100 μM came out at 104% and the viability at 200 μM was found to be 96.2%. For the same compound, in data set [1] (50 μM final in well), the “DEL (fold increase)” value amounted to 0.77 fold and the DEL significance result is given as “ns (ns—not significant (p > 0.05))”. Also, in data set [1] (100 μM final in well), the “DEL (fold increase)” value is listed as 0.74 fold and the DEL significance result was “ns (ns—not significant (p > 0.05))”. For the same compound, in data set [1] (200 μM final in well), the Cytotoxicity significance entry was “ns (ns—not significant (p > 0.05))”, the “DEL (fold increase)” value amounted to 0.95 fold and the DEL significance result is on record as “ns (ns—not significant (p > 0.05))”. Moreover, in data set [1] (up to 200 μM), the DEL fold-increase result is “no DEL fold-increase”.
`CC(=O)N[C@@H](CS)C(=O)O` [NAC, N-acetylamine]: in data set [3], the “protection against HNO induced DNA deletions” value was “protected”.
In the case of `CC[C@@]1(O)C(=O)OCc2c1cc1n(c2=O)Cc2cc3ccccc3nc2-1` [Camptothecin, camptothecin], in data set [4] (setting [5]), the viability at 5 μM was 86.1%, the viability at 15 μM was 93.1%, the viability at 25 μM stood at 95.7% and the viability at 40 μM turned out to be 85.6%. In data set [1] (5 μM final in well), the Cytotoxicity significance result is given as “*** (*** (p < 0.005))”, the “DEL (fold increase)” value is recorded as 1.28 fold and the DEL significance result is “** (** (p < 0.01))”. Besides, in data set [1] (15 μM final in well), the Cytotoxicity significance entry is recorded as “* (* (p < 0.05))”, the “DEL (fold increase)” value amounted to 1.53 fold and the DEL significance result is “*** (*** (p < 0.005))”. Besides, in data set [1] (25 μM final in well), the Cytotoxicity significance entry was “* (* (p < 0.05))”, the “DEL (fold increase)” value amounted to 1.57 fold and the DEL significance result is given as “*** (*** (p < 0.005))”. For the same compound, in data set [1] (40 μM final in well), the Cytotoxicity significance entry is on record as “*** (*** (p < 0.005))”, the “DEL (fold increase)” value amounted to 1.77 fold and the DEL significance result was “*** (*** (p < 0.005))”. Besides, in data set [1] (each concentration 5-40 μM), the cytotoxicity entry was “various degrees of cytotoxicity”. The “genotoxicity (growth in −HIS media)” value in data set [1] (each concentration 5-40 μM (1.7-13.9 μg/ml)) is recorded as “significant genotoxicity”.
With `O=C(O)CCCc1ccc(N(CCCl)CCCl)cc1` [Chlorambucil, chlorambucil], in data set [4], the viability at 1 μM is 82.4%, the viability at 10 μM is 35.7% and the viability at 30 μM is 20.5%. Besides, in data set [1] (1 μM final in well), the Cytotoxicity significance result is given as “** (** (p < 0.01))”, the “DEL (fold increase)” value was found to be 1.18 fold and the DEL significance result is “* (* (p < 0.05))”. In addition, in data set [1] (10 μM final in well), the Cytotoxicity significance result is listed as “*** (*** (p < 0.005))”, the “DEL (fold increase)” value came to 2.37 fold and the DEL significance result is listed as “*** (*** (p < 0.005))”. Also, in data set [1] (30 μM final in well), the Cytotoxicity significance entry is “*** (*** (p < 0.005))”, the “DEL (fold increase)” value is 3.58 fold and the DEL significance result is “*** (*** (p < 0.005))”. In data set [1] (setting [6]), the cytotoxicity result is “significant genotoxicity and cytotoxicity”; the genotoxicity result was “significant genotoxicity and cytotoxicity”. Moreover, in data set [1], the “DEL events (DNA deletions) induced by crosslinking agents” value is “significant increase in DEL events”.
